In patent US20260115170A1, “Method of Ameliorating a Symptom or a Disease in a Human Caused by Fungus” (ISHIHARA SANGYO KAISHA, LTD., priority 2020, published 2026):
In brackets after ≈: the same amount, converted by molar mass.

Tests used:
Type in all cases: cell-based
[1] = test system: Arthroderma vanbreuseghemii (JCM1891); test: Test Example 2 minimum inhibitory concentration; details: Trichophyton mentagrophytes, Sabouraud medium, 25° C. for 120 hours
Description: (§1) Test Microbial Strains: Candida albicans (NBRC1594 Strain), Candida glabrata (JCM3761 Strain), Cryptococcus neoformans (JCM3685 Strain), Aspergillus fumigatus (JCM10253), Aspergillus niger (ATCC6725), Trichophyton rubrum (ATCCMYA4607), Trichophyton interdegitale (ATCC9533), Microsporum canis (NBRC7863), and Arthroderma vanbreuseghemii (JCM1891)
(§2) The Candida microbes and the Cryptococcus microbe were cultured at 30° C. for 72 hours and the other microbes were cultured at 25° C. for 120 hours in Sabouraud media, and then suspended in 5 mL of PBS (containing 8 g of sodium chloride, 2.9 g of disodium hydrogen phosphate, 0.2 g of potassium chloride, and 0.2 g of potassium dihydrogen phosphate in 1000 mL) containing Tween80 (polyoxyethylene sorbitan monooleate: Kanto Chemical Co., Inc.) (1% (V/V))), and the resulting suspension was filtered through a cell strainer (φ40 μm). Spores were recovered from the filtrate by centrifugation (3500 rpm, 5 minutes) and washed twice with physiological saline, and then a spore suspension was prepared (1×10^6 spores/mL). 50 μL of the spore suspension was inoculated into a Sabouraud medium to which compound No. 6 dissolved in DMSO was added to have a predetermined concentration. The Candida microbes and the Cryptococcus microbe were cultured at 30° C. for 72 hours and the other microbes were cultured at 25° C. for 120 hours, then the presence or absence of colony growth was investigated, and the minimum inhibitory concentration was determined.

[2] = test system: Aspergillus fumigatus (JCM10253); test: Test Example 2 minimum inhibitory concentration; details: Sabouraud medium, 25° C. for 120 hours
Description: as §1, §2

[3] = test system: Aspergillus niger (ATCC6725); test: Test Example 2 minimum inhibitory concentration; details: Sabouraud medium, 25° C. for 120 hours
Description: as §1, §2

[4] = test system: Candida albicans (NBRC1594 Strain); test: Test Example 2 minimum inhibitory concentration; details: Sabouraud medium, 30° C. for 72 hours
Description: as §1, §2

[5] = test system: Candida glabrata (JCM3761 Strain); test: Test Example 2 minimum inhibitory concentration; details: Nakaseomyces glabratus, Sabouraud medium, 30° C. for 72 hours
Description: as §1, §2

[6] = test system: Cryptococcus neoformans (JCM3685 Strain); test: Test Example 2 minimum inhibitory concentration; details: Sabouraud medium, 30° C. for 72 hours
Description: as §1, §2

[7] = test system: Microsporum canis (NBRC7863); test: Test Example 2 minimum inhibitory concentration; details: Sabouraud medium, 25° C. for 120 hours
Description: as §1, §2

[8] = test system: Trichophyton interdegitale (ATCC9533); test: Test Example 2 minimum inhibitory concentration; details: Sabouraud medium, 25° C. for 120 hours
Description: as §1, §2

[9] = test system: Trichophyton rubrum (ATCCMYA4607); test: Test Example 2 minimum inhibitory concentration; details: Sabouraud medium, 25° C. for 120 hours
Description: as §1, §2

[10] = test system: Malassezia furfur (IFM 55951); test: Test Example 3-1 antifungal activity test, minimum fungicidal concentration after 1 minute; details: 1 minute contact, CHROMagar medium, 32° C. for 72 hours, read-out: Minimum fungicidal concentration (MFC100)
Description: (§3) Test Microbial Strains: Malassezia furfur (IFM 55951), Malassezia sympodialis (IFM 48588), and Malassezia globosa (IFM 51946) The Malassezia microbe (Malassezia furfur, Malassezia sympodialis, or Malassezia globosa) cultured in a CHROMagar™ Malassezia/Candida Prepared medium (peptone, special enzyme substrate mixture, chloramphenicol, olive oil, agar, manufactured by Kanto Chemical Co., Inc.) for 5 to 7 days was suspended in physiological saline, and a suspension thereof was prepared in such a way as to have an absorbance of 0.025 at 600 nm. Thereto, the test compound dissolved in DMSO was added in such a way as to provide a final concentration of 200, 100, 50, or 25 ppm, and after 1 minute, 10 μL of the suspension and 10 mL of physiological saline were placed in a syringe and stirred, and the syringe was connected to a 37 mm Quality Monitor (manufactured by Pall Corporation) followed by filtration and washing twice with 10 mL of physiological saline. The membrane filter was removed from the Quality Monitor, placed on a CHROMagar™ Malassezial Candida Prepared medium, and was subjected to culturing at 32° C. for 72 hours, the presence or absence of colony growth was investigated, and the minimum fungicidal concentration (MFC100) was determined.

[11] = test system: Malassezia globosa (IFM 51946); test: as above; details: 1 minute contact, CHROMagar medium, 32° C. for 72 hours, read-out: Minimum fungicidal concentration (MFC100)
Description: as §3

[12] = test system: Malassezia sympodialis (IFM 48588); test: as above; details: 1 minute contact, CHROMagar medium, 32° C. for 72 hours, read-out: Minimum fungicidal concentration (MFC100)
Description: as §3

[13] = test system: Malassezia restricta (IFM55992); test: Test Example 3-2 antifungal activity test, minimum fungicidal concentration after 1 minute; details: 1 minute contact, MLNA medium, 32° C. for 72 hours, read-out: Minimum fungicidal concentration (MFC100)
Description: Test Microbial Strain: Malassezia restricta (IFM55992) The Malassezia microbe (Malassezia restricta) cultured in a CHROMagar™ Malassezial Candida Prepared medium (peptone, special enzyme substrate mixture, chloramphenicol, olive oil, agar, manufactured by Kanto Chemical Co., Inc.) for 5 to 7 days was suspended in physiological saline, and a suspension thereof was prepared in such a way as to have an absorbance of 0.025 at 600 nm. Thereto, the test compound dissolved in DMSO was added in such a way as to provide a final concentration of 200, 100, 50, or 25 ppm, and after 1 minute, 10 μL of the suspension and 10 mL of physiological saline were placed in a syringe and stirred, and the syringe was connected to a 37 mm Quality Monitor (manufactured by Pall Corporation) followed by filtration and washing twice with 10 ml of physiological saline. The membrane filter was removed from the Quality Monitor, placed on a Leeming & Notman agar Modified medium (MLNA medium) (peptone, glucose, yeast extract, dried bovine bile, glycerol, glycerin stearate, Tween60, olive oil, agar), and subjected to culturing at 32° C. for 72 hours, the presence or absence of colony growth was investigated, and the minimum fungicidal concentration MFC100) was determined.

- MIC [1]: 7.8 µg/mL (≈ 30.9 µM)
- MIC [2]: 62.5 µg/mL (≈ 248 µM)
- MIC [3]: 62.5 µg/mL (≈ 248 µM)
- MIC [4]: 250 µg/mL (≈ 992 µM)
- MIC [5]: 250 µg/mL (≈ 992 µM)
- MIC [6]: 31.3 µg/mL (≈ 124 µM)
- MIC [7]: 125 µg/mL (≈ 496 µM)
- MIC [8]: 62.5 µg/mL (≈ 248 µM)
- MIC [9]: 31.3 µg/mL (≈ 124 µM)
SMILES: Cc1ccc(-c2nc(C#N)[nH]c2Cl)cc1Cl [Compound No. 6, 5-Chloro-4-(3-chloro-4-methylphenyl)-1H-imidazole-2-carbonitrile]
- MFC [10]: 50 µg/mL (≈ 198 µM)
- MFC [11]: 50 µg/mL (≈ 198 µM)
- MFC [12]: 50 µg/mL (≈ 198 µM)
- MFC [13]: 200 µg/mL (≈ 793 µM)
